Entries after “also recorded” stand apart in the source; their conditions may differ.
How the values were obtained:
[1] = system: 5-FU induced weight loss; experiment: Protection from 5-FU induced weight loss by uridine alone or uridine plus TK-90; format: in vivo, CD-1 mice
Source text: Weight loss is one of the cardinal features of mucositis. […] Controls include PBS alone at times mimicking the time for 5-FU and combined uridine and TK-90 treatments. There were n=6 animals in all groups.

[2] = man and animals; cited from earlier work
[3] = cited from earlier work
[4] = system: plasma citrulline; experiment: Plasma citrulline after 5-FU (LC/MS/MS-Isotope assay), surrogate marker for mucositis; format: in vivo, C57BL/6 female mice; details: Day 3
Description: The chemotherapeutic challenge was diminished plasma citrulline by 5-FU treatment. The aim of this study was to explore whether a uridine phosphorylase inhibitor could prevent lowered plasma citrulline induced by 5-FU.
TK-90 solution was prepared at a concentration of 500 mg/mL in sterile PBS. Eight animals were used for Groups 1,2 and 3.
Osmotic pumps were placed inside the subcutaneous tunnel. Incision was sealed with Vetbond tissue adhesive and wound clips.
Blood collections were done to animals anesthetized with ketamine (ip 100 mg/kg). Whole blood (˜0.8 mL) was drawn through the retro-orbital sinus using a heparin coated micro-hematocrit tube and collected into a heparin microtainer tube. Blood samples were transferred into fresh 1.5 mL microcentrifuge tubes and centrifuged for 5 minutes at 10,000×g using an Eppendorf Minispin Plus stored in a 4° C. refrigerator. Following collection of the plasma samples, the animals were sacrificed on Day 3 by cervical dislocation and properly disposed. […]
Thawed plasma samples from the study were analyzed for citrulline using a published LC/MS/MS-Isotope assay. (Jones et al., Development and validation of a LC-MS/MS assay for quantitation of plasma citrulline for application to animal models of the acute radiation syndrome across multiple species,” Anal Bioanal Chem. (2014) 406(19):4663-75).

[5] = system: panel of cytokines and related biochemicals; experiment: Plasma cytokine changes induced by 5-FU, multiplex ELISA on plasma of Experiment III; format: in vivo, C57BL/6 female mice; details: Day 3; 200 mg/kg 5-FU ip plus 6000 mg/kg TK-90 osmotic pump over 24 hours; vs 5-FU alone
Description: The chemotherapeutic challenge was cytokine changes induced by 5-FU treatment.
Plasma samples from Experiment III were analyzed for a panel of cytokines and related biochemicals by multiplex ELISA. […] IL-1B, TNF-α, and IL-6 are pro-inflammatory cytokines known to be elevated with mucositis. (Logan et al., “The role of pro-inflammatory cytokines in cancer treatment-induced alimentary tract mucositis: pathobiology, animal models and cytotoxic drugs,” Cancer Treat Rev. (2007) 33(5):448-60; Ong et al., “Pro-inflammatory cytokines play a key role in the development of radiotherapy-induced gastrointestinal mucositis,” Radiat Oncol. (2010) (16) 5:22). TK-90 reverses elevation of all three of these cytokines (FIGS. 5, 6 and 7). IL-2 is a pleiotropic cytokine that drives growth and activation of inflammatory cells such as T-cells, NK cells, etc. IL-9 and IL-15 signal through IL-2. TK-90 reverse the 5-FU induced elevation of all three of these cytokines (FIGS. 8, 9, and 10). IL-12 is a cytokine linked to generation of an immune response. Another cytokine associated with generation of an immune response is IL-5. TK-90 reverse the 5-FU induced elevation of IL-12 and IL5 (FIGS. 11, 12 and 13). IL-10 is a cytokine that plays a central role in limiting host immune response. TK-90 reverses the elevation of IL-10 induced by the 5-FU treatment possibly allowing an immune response to proceed to potentially clear damaged tissue (FIG. 14). GM-CSF and M-CSF both stimulate cell mediators of inflammation. TK-90 reverse the 5-FU induced elevation of both GM-CSF and […] (FIGS. 15 and 16). MIP-2, and KC are chemokines that function much like GM-CSF, and M-CSF to stimulate cell mediators of inflammation TK-90 reverse the 5-FU induced elevation of the chemokines (FIGS. 17 and 18). 5-FU decreases eotaxin, a chemokine that recruits immune-related mediators like eosinophils into inflammatory sites (FIG. 19). TK-90 reverses this decrease.

[6] = Side effects of TK-90 (clinical trials); details: in vivo
[7] = system: uridine; experiment: Systemic uridine after administration of TK-90; format: in vivo
[8] = system: weight loss induced by 5-FU; details: 400 mg/kg 5-FU ip Day 0 plus 5333 mg/kg sc TK-90 by osmotic pump over 24 hours; compared to 5-FU alone
Description: The chemotherapeutic challenge was weight loss induced by 5-FU (FIG. 2). […] The aim of this study was to explore whether 5-FU combined with a uridine phosphorylase inhibitor provides protection from weight loss, a principal toxicity of 5-FU.
Groups of CD-1 female mice entrained to light:dark (12:12 hours), and given food and water ad libitum, were used for this experiment. The mean weight of the mice at the start of the experiment was approximately 20 g. Control mice were injected ip with sterile PBS, the vehicle control (Group 1). Group 2 and Group 3 mice were injected, ip, with 400 mg/kg 5-FU (Sigma) dissolved in PBS. A 24-hour osmotic pump (ALZET® micro-osmotic pump, Alza Co) was implanted into Group 3 animals. The pumps were loaded with 200 μL (2001D osmotic pump) of a 500 mg/mL solution of TK-90 (FIG. 2) in PBS. The TK-90 dose over the 24-hour infusion was 5333 mg/kg. The four animals were used for Group 1 and 8 animals were used for Groups 2 and 3.
For the implantation of the osmotic pump, animals were anesthetized with 100 mg/kg ketamine prior to pump implantation. […]
Animals were sacrificed on Day 5 by cervical dislocation and properly disposed. Animal weights were recorded daily for 6 days and the percent difference between Day 0 and Day 5 at termination was calculated.

[9] = patients who receive 5-FU for their disease; cited from earlier work

SMILES: O=c1ccn([C@@H]2O[C@H](CO)[C@@H](O)[C@H]2O)c(=O)[nH]1 [uridine]
- percent change in weight Day 5 versus Day 0 ([1]; 80 mg/kg 5-FU qdx5 ip with 750 mg/kg uridine bid, compared to 5-FU alone): statistically significant but much less
- half-life of administered uridine [2]: ~3 min
- toxicity of continuous infusions of high-dose uridine ([3]; continuous infusion): high fever, cellulitis, and superior vena cava syndrome
- toxicity of orally administered uridine ([3]; oral, high-dose, clinical studies): considerable GI dysfunction; also recorded: severe patient diarrhea, phlebitis and pyrogenic reactions

SMILES: Cc1cn2c(nc1=O)O[C@H]1[C@H](O)[C@@H](CO)O[C@H]12 [TK-90]
- percent change in weight Day 5 versus Day 0 ([1]; 80 mg/kg 5-FU qdx5 ip with 750 mg/kg uridine and 120 mg/kg TK-90 bid, compared to 5-FU alone): protected from the weight loss
- plasma citrulline concentration ([4]; 200 mg/kg 5-FU ip plus 6000 mg/kg TK-90 by osmotic pump over 24 hours starting 4 hours post 5-FU, compared to 5-FU alone): reverses the decrease in plasma citrulline; also recorded: robust, statistically significant rebound in plasma citrulline
- plasma GM-CSF [5]: highly significantly different; also recorded: reverses the increase in plasma GM-CSF
- plasma IL-1β [5]: reverses the increase in plasma IL-1β
- plasma IL-2 [5]: reverses the increase in plasma IL-2
- plasma IL-6 [5]: reverses the increase in plasma IL-6
- plasma IL-9 [5]: highly significantly different; also recorded: reverses the increase in plasma IL-9
- plasma IL-10 [5]: highly significantly different; also recorded: reverses the increase in plasma IL-10
- plasma IL-12 (P40) [5]: highly significantly different; also recorded: reverses the increase in plasma IL-12 (P40)
- plasma IL-12 (P70) [5]: highly significantly different; also recorded: reverses the increase in plasma IL-12 (P70)
- plasma IL-15 [5]: highly significantly different; also recorded: reverses the increase in plasma IL-15
- plasma KC (keratinocytes-derived chemokine) [5]: significantly different; also recorded: reverses the increase in plasma KC
- plasma M-CSF [5]: reverses the increase in plasma M-CSF
- plasma MIP-2 [5]: reverses the increase in plasma MIP-2
- plasma TNF-α [5]: reverses the increase in plasma TNF-α
- plasma eotaxin [5]: reverses the decrease in plasma eotaxin
- side effects [6]: no known side effects
- systemic uridine [7]: increases systemic uridine
- percent weight change on Day 5 versus Day 0 [8]: protected from the weight loss

SMILES: O=c1[nH]cc(F)c(=O)[nH]1 [Compound 5-FU, 5-flurouracil]
- percent change in weight Day 5 versus Day 0 ([1]; 80 mg/kg 5-FU qdx5 ip alone, compared to PBS vehicle control): robust weight loss
- plasma citrulline concentration ([4]; 200 mg/kg 5-FU ip alone, compared to PBS vehicle control): significant reduction in citrulline
- patients who develop mucositis [9]: Approximately 80%

— patent US12109222B2, “Methods and compositions for treating mucositis” (Tosk, Inc., priority 2018, dated 2024)
